The text below walks through data of ChEMBL document CHEMBL4002553, “Dragmacidins G and H, Bisindole Alkaloids Tethered by a Guanidino Ethylthiopyrazine Moiety, from a Lipastrotethya sp. Marine Sponge” (J Nat Prod, 2016).

The IC50 is the midpoint of a concentration-inhibition curve. The low end stands for inhibition by little substance, the high end for a need for much substance.

The experiment has as its system HeLa. Description: Cytotoxicity against human HeLa cells after 72 hrs by MTT assay. The format is functional, cell-based. On the technique in general: Tetrazolium assays rely on reduction of a dye to a coloured formazan, in cell work by metabolically active cells.

Regarding `N=C(N)NCCSc1nc(-c2c[nH]c3cc(Br)ccc23)cnc1-c1c[nH]c2cc(Br)ccc12`, the midpoint of inhibition, the IC50, lay at 4.2 µM.

For the molecule `N=C(N)NCCSc1nc(-c2c[nH]c3ccccc23)cnc1-c1c[nH]c2cc(Br)ccc12`, it took 4.6 µM to reach half-maximal inhibition (IC50). `O=C(c1nc(-c2c[nH]c3cc(Br)ccc23)c[nH]1)c1c[nH]c2cc(O)ccc12` [BROMOTOPSENTIN] registered an IC50 of 1.7 µM. Compared with the last molecule, the IC50 is about 2.7-fold lower. The figure for `O=C(c1nc(-c2c[nH]c3ccccc23)c[nH]1)c1c[nH]c2cc(O)ccc12` [TOPSENTIN] is 4.4 µM.
